From ChEMBL document CHEMBL1201862, “PubChem BioAssay data set” (2004)
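Protocol summary: plate cells (96-well), add compound at 5 concentrations, incubate 48 h, interpolate endpoints linearly. Abbreviation: GI50, concentration required for 50% inhibition of growth.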 Active and inactive are the calls of the source. No stated cut-off is given here; in the data, active = GI50 up to about 1.1 µM and inactive = higher.

Experiments:
Assay in all cases: DTP human tumour cell line panel, 48 h
786-0 = test system: 786-0
A498 = test system: A498
M14 = test system: M14
MDA-MB-231 = test system: MDA-MB-231
MDA-MB-435 = test system: MDA-MB-435
MDA-N = test system: MDA-N
NCI-H460 = test system: NCI-H460
NCI-H522 = test system: NCI-H522
NCI/ADR-RES = test system: NCI/ADR-RES
OVCAR-3 = test system: OVCAR-3
OVCAR-5 = test system: OVCAR-5
SF-268 = test system: SF-268
SF-295 = test system: SF-295
SK-OV-3 = test system: SK-OV-3
SN12C = test system: SN12C
SNB-19 = test system: SNB-19
T47D = test system: T47D
U-251 = test system: U-251
UACC-257 = test system: UACC-257
SF-539 = test system: SF-539

Measured: GI50

C[N+]12C=CC=C1C(N1CCCC1)c1sc(-c3ccc(Cl)cc3)cc12 (configuration not stated)
inactive: 786-0 15.4 µM | A498 18.8 µM | M14 17.1 µM | MDA-MB-231 18.3 µM | MDA-MB-435 15.7 µM | MDA-N 15.8 µM | NCI-H460 18.1 µM | NCI-H522 10.4 µM | NCI/ADR-RES 36.9 µM | OVCAR-3 13.6 µM | OVCAR-5 19.2 µM | SF-268 17.1 µM | SF-295 20.3 µM | SK-OV-3 18.7 µM | SN12C 13.7 µM | SNB-19 13.6 µM | T47D 10.6 µM | U-251 12.1 µM | UACC-257 15.5 µM

CC(=O)OCC12C(=O)C[C@@H](C)C3(CC(c4ccoc4)OC3=O)C1CCC(OC(C)=O)C21CO1 (some centres not stated)
inactive: 786-0 > 100 µM | A498 > 100 µM | M14 > 100 µM | MDA-MB-231 > 100 µM | MDA-MB-435 > 100 µM | MDA-N > 100 µM | NCI-H460 > 100 µM | NCI-H522 > 100 µM | NCI/ADR-RES > 100 µM | OVCAR-3 > 100 µM | OVCAR-5 > 100 µM | SF-268 > 100 µM | SF-295 > 100 µM | SF-539 > 100 µM | SN12C > 100 µM | SNB-19 > 100 µM | T47D > 100 µM | U-251 > 100 µM | UACC-257 > 100 µM

CC1(C)[C@@H](Cn2cnc3c(N)ncnc32)CC[C@@]1(C)CO
inactive: 786-0 > 100 µM | A498 > 100 µM | M14 > 100 µM | MDA-MB-231 > 100 µM | MDA-MB-435 45.6 µM | MDA-N 50 µM | NCI-H460 > 100 µM | NCI-H522 41.3 µM | NCI/ADR-RES 84.5 µM | OVCAR-3 73.6 µM | OVCAR-5 83.4 µM | SF-268 > 100 µM | SF-295 38.8 µM | SK-OV-3 > 100 µM | SN12C > 100 µM | SNB-19 > 100 µM | T47D > 100 µM | U-251 > 100 µM | UACC-257 67.1 µM

OC(C#CCN1CCCC1)(c1ccccc1)c1ccccc1Cl (configuration not stated)
inactive: 786-0 > 10 µM | A498 17.1 µM | MDA-MB-231 47.1 µM | MDA-MB-435 23.2 µM | MDA-N 23 µM | NCI-H460 20.2 µM | NCI-H522 22.6 µM | NCI/ADR-RES 23.3 µM | OVCAR-3 82.8 µM | OVCAR-5 > 100 µM | SF-268 44.2 µM | SF-295 24.6 µM | SF-539 26.5 µM | SK-OV-3 61 µM | SN12C 43.9 µM | T47D 28.6 µM | U-251 17.7 µM | UACC-257 20.7 µM

Cc1ccc(/C(=C\C(=O)C(=O)NC23CC4CC(CC(C4)C2)C3)Sc2ccccc2)cc1
inactive: 786-0 > 10 µM | A498 > 10 µM | M14 > 10 µM | MDA-MB-231 > 10 µM | MDA-MB-435 > 10 µM | MDA-N > 10 µM | NCI-H460 > 10 µM | NCI-H522 > 10 µM | NCI/ADR-RES > 10 µM | OVCAR-3 > 10 µM | OVCAR-5 > 10 µM | SF-268 > 10 µM | SF-295 > 10 µM | SF-539 > 10 µM | SK-OV-3 > 10 µM | SN12C > 10 µM | T47D > 10 µM | U-251 > 10 µM | UACC-257 > 10 µM

CNC(=O)CCC(NC(=O)OC(C)(C)C)C(=O)NC(Cc1ccc(NC(=O)CCCCC(C)=O)cc1)C(=O)NCC(=O)NC (configuration not stated)
inactive: 786-0 > 100 µM | A498 > 100 µM | M14 > 100 µM | MDA-MB-231 > 100 µM | MDA-MB-435 > 100 µM | MDA-N > 100 µM | NCI-H460 > 100 µM | NCI-H522 > 100 µM | NCI/ADR-RES > 100 µM | OVCAR-3 > 100 µM | OVCAR-5 > 100 µM | SF-268 > 100 µM | SF-295 > 100 µM | SF-539 > 100 µM | SK-OV-3 > 100 µM | SN12C > 100 µM | SNB-19 > 100 µM | T47D > 100 µM | U-251 > 100 µM

CCOC(=O)NNC(=O)NCCNC(=O)NNC(=O)OCC
inactive: 786-0 > 100 µM | A498 > 100 µM | M14 > 100 µM | MDA-MB-231 > 100 µM | MDA-MB-435 > 100 µM | MDA-N > 100 µM | NCI-H460 > 100 µM | NCI-H522 > 100 µM | NCI/ADR-RES > 100 µM | OVCAR-3 > 100 µM | OVCAR-5 69.3 µM | SF-268 > 100 µM | SF-539 > 100 µM | SK-OV-3 > 100 µM | SN12C > 100 µM | SNB-19 > 100 µM | T47D > 100 µM | U-251 > 100 µM | UACC-257 > 100 µM
